This is an account of results in patent publication US20240150377A1, “MODULATORS OF CYSTIC FIBROSIS TRANSMEMBRANE CONDUCTANCE REGULATOR” (VERTEX PHARMACEUTICALS INCORPORATED, priority 2020, published 2024).

Like-named read-outs stand apart in the source and are kept apart here.

The experiment concerns the target CFTR (Homo sapiens, UniProt P13569). Nature of the experiment: Membrane potential dye, Enteroid Assay A. In kind it is cell-based. The settings on record: for Ent. A Max Activity: chloride transport as % of triple combination control (Enteroid Assay A); for EC50: human enteroid cells, 18-24 hours, acute 10 μM forskolin and 300 nM ivacaftor, read-out: Ent. A EC50. The method in brief: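 % Activity: chloride transport relative to a 3 μM/3 μM corrector pair plus 300 nM acute potentiator control. Primary human enteroid cells, 18-24 h compound exposure at 37 °C; membrane potential dye (methyl oxonol) fluorescence over 15 min after forskolin (10 μM)/IBMX (100 μM)/Compound III (300 nM) stimulation in chloride-free buffer.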

Chain of CFTR (P13569 with tags, fused parts or gaps DEL508-508): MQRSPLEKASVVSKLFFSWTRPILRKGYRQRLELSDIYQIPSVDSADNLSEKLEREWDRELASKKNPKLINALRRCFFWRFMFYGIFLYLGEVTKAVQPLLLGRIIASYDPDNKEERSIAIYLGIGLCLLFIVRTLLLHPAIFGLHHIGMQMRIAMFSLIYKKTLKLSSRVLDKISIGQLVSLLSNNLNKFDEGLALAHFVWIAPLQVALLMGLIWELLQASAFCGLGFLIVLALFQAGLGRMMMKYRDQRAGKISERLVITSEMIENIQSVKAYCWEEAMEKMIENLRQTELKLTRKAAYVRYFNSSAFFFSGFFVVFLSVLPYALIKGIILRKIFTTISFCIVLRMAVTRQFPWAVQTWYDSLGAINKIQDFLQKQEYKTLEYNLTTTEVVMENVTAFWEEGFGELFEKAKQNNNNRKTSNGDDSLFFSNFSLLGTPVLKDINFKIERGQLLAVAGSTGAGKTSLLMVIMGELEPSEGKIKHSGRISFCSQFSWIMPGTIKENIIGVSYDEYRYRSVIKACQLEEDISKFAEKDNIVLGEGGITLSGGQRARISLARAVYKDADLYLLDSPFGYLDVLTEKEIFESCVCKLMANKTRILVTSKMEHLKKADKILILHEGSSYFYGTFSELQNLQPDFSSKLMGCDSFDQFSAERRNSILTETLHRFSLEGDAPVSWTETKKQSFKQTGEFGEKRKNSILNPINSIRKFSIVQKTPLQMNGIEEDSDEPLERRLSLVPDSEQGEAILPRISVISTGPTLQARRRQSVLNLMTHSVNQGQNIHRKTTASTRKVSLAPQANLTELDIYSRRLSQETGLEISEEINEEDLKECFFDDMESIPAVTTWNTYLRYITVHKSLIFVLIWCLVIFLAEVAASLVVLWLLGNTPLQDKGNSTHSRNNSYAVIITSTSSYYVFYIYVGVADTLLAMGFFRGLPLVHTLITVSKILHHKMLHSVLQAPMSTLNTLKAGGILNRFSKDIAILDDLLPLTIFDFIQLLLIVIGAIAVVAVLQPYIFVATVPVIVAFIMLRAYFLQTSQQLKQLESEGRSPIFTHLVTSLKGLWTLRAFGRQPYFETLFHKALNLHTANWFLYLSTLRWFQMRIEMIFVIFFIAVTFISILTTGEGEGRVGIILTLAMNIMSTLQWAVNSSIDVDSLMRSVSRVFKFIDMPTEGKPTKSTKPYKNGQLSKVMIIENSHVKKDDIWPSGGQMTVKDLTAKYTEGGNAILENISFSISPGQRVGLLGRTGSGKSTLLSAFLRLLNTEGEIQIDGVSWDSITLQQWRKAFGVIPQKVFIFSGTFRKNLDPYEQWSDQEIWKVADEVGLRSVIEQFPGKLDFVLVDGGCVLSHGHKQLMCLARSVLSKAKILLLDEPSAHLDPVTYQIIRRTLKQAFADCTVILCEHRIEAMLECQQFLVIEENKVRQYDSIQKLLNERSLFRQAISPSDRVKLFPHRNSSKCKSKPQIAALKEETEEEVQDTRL

As a reminder, the EC50 is the midpoint of the concentration-response curve. For `Cc1cccc(C)c1-c1cc2nc(n1)NS(=O)(=O)c1cccc(c1)C(=O)N(CC1CCN(C)CC1)[C@H](CC(C)(C)C)CO2` [Compound 426], for the setting “Table 6”, the “Ent. A Max Activity” value is “+++ (+++ is >60%)” and the EC50 was 1 to 3 µM.
Turning to `Cc1cccc(C)c1-c1cc2nc(n1)NS(=O)(=O)c1cccc(c1)C(=O)N(Cc1ccc(N3CCC(N(C)C)CC3)nc1)[C@H](CC(C)C)CO2` [Compound 945], under “Table 7”, the “Ent. A Max Activity” value is “+++ (+++ is >60%)” and the EC50 is < 1 µM.
As to `Cc1cccc(C)c1-c1cc2nc(n1)NS(=O)(=O)c1cccc(c1)C(=O)N(Cc1ccc(N3CCCC3)cc1)[C@H](CC(C)C)CO2` [Compound 858], under “Table 6”, the “Ent. A Max Activity” value is listed as “+++ (+++ is >60%)” and the EC50 is < 1 µM.
The corresponding values for `Cc1cccc(C)c1-c1cc2nc(n1)NS(=O)(=O)c1cccc(c1)C(=O)N(Cc1ccccn1)CCCO2` [Compound 5, 6-(2,6-Dimethylphenyl)-2,2-dioxo-13-(2-pyridylmethyl)-9-oxa-2λ^6-thia-3,5,13,20-tetrazatricyclo[13.3.1.14,8]icosa-1(19),4(20),5,7,15,17-hexaen-14-one] are “+++ (+++ is >60%)” and 1 to 3 µM.
`Cc1cccc(C)c1-c1cc2nc(n1)NS(=O)(=O)c1cccc(c1)C(=O)N(Cc1ccccc1)C(CCC1(C(F)(F)F)CC1)CO2` (centres unmarked) [Compound 689]: under “Table 6”, the “Ent. A Max Activity” value is recorded as “+++ (+++ is >60%)” and the EC50 is < 1 µM.
`Cc1cccc(C)c1-c1cc2nc(n1)NS(=O)(=O)c1cccc(c1)C(=O)N(C)CC(c1ccc(C3CC3)cc1)O2` (centres unmarked) [Compound 674]: where the note is “Table 6”, the “Ent. A Max Activity” value was “++ (++ is 30-60%)” and the EC50 was < 1 µM.
`COCCOCCN1C(=O)c2cccc(c2)S(=O)(=O)Nc2nc(cc(-c3c(C)cccc3C)n2)OC[C@H]1CC(C)C` [Compound 424]: under “Table 6”, the “Ent. A Max Activity” value is given as “+++ (+++ is >60%)” and the EC50 was < 1 µM.
For `Cc1cccc(C)c1-c1cc2nc(n1)NS(=O)(=O)c1cccc(c1)C(=O)N(Cc1ccc(C3=CCN(C)CC3)nc1)[C@H](CC(C)C)CO2` [Compound 967], the EC50 (Table 7) was < 1 µM.
Consider `Cc1cccc(C)c1-c1cc2nc(n1)NS(=O)(=O)c1cccc(c1)C(=O)N(C)C[C@H](c1ccccc1)O2` [Compound 672], for which, under “Table 6”, the “Ent. A Max Activity” value is “++ (++ is 30-60%)” and the concentration giving a half-maximal response (EC50) was < 1 µM.
Consider `Cc1cccc(C)c1-c1cc2nc(n1)NS(=O)(=O)c1cccc(c1)C(=O)N(CCCC(=O)O)[C@H](CC(C)C)CO2` [Compound 359], for which, under “Table 6”, the “Ent. A Max Activity” value is listed as “++ (++ is 30-60%)” and the half-maximal effective concentration (EC50) lay within 3 to 30 µM.
With `CC(=O)N1Cc2cccc(c2)S(=O)(=O)Nc2nc(cc(-c3c(C)cccc3C)n2)OC[C@H]1CC(C)C` [Compound 1025], the “Ent. A Max Activity” value (Table 7) is given as “+ (+ is <30%)”.
`Cc1cccc(C)c1-c1cc2nc(n1)NS(=O)(=O)c1cccc(c1)C(=O)N(Cc1ccc(NC[C@@H](O)CO)nc1)[C@H](CC(C)C)CO2` [Compound 947]: where the note is “Table 7”, the “Ent. A Max Activity” value was “+++ (+++ is >60%)” and the EC50 is < 1 µM.
Regarding `Cc1cccc(C)c1-c1cc2nc(n1)NS(=O)(=O)c1cccc(c1)C(=O)N(Cc1ccc(N3CCC(F)CC3)nc1)[C@H](CC(C)C)CO2` [Compound 973], where the note is “Table 7”, the “Ent. A Max Activity” value is “+++ (+++ is >60%)” and the EC50 was < 1 µM.
As to `Cc1cccc(C)c1-c1cc2nc(n1)NS(=O)(=O)c1cccc(c1)C(=O)N(C[C@@H](O)CO)[C@H](CC(C)C)CO2` [Compound 38, (11R)-12-[(2R)-2,3-Dihydroxypropyl]-6-(2,6-dimethylphenyl)-11-(2-methylpropyl)-9-oxa-2λ^6-thia-3,5,12,19-tetraazatricyclo[12.3.1.14,8]nonadeca-1(17),4(19),5,7,14(18),15-hexaene-2,2,13-trione], where the note is “Table 6”, the “Ent. A Max Activity” value was “+++ (+++ is >60%)” and the EC50 is < 1 µM.
On to `Cc1cccc(C)c1-c1cc2nc(n1)NS(=O)(=O)c1cccc(c1)CN(Cc1ccc(Oc3ccccc3)cc1)[C@H](CC(C)C)CO2` [Compound 1030], for which, where the note is “Table 7”, the “Ent. A Max Activity” value is recorded as “++ (++ is 30-60%)” and the EC50 is < 1 µM.
Take `Cc1cccc(C)c1-c1cc2nc(n1)NS(=O)(=O)c1cccc(c1)C(=O)N(Cc1ccn[nH]1)[C@H](CC(C)C)CO2` [Compound 860]: under “Table 6”, the “Ent. A Max Activity” value is given as “+++ (+++ is >60%)” and the concentration for a half-maximal effect (EC50) is < 1 µM.
As to `Cc1cccc(C)c1-c1cc2nc(n1)NS(=O)(=O)c1cccc(c1)C(=O)N(CCCn1cccn1)[C@H](CC(C)C)CO2` [Compound 354], for the setting “Table 6”, the “Ent. A Max Activity” value is on record as “+++ (+++ is >60%)” and the 50% effective concentration (EC50) was < 1 µM.
For `Cc1cccc(C)c1-c1cc2nc(n1)NS(=O)(=O)c1cccc(c1)C(=O)N(Cc1cccc(C#N)c1)[C@H](CC(C)C)CO2` [Compound 859] the same measures were “+++ (+++ is >60%)” and < 1 µM.
For `Cc1cccc(C)c1-c1cc2nc(n1)NS(=O)(=O)c1cccc(c1)C(=O)N(CCC1CCCCC1)[C@H](CC(C)C)CO2` [Compound 358], for the setting “Table 6”, the “Ent. A Max Activity” value is recorded as “+++ (+++ is >60%)” and the EC50 is < 1 µM.
On to `Cc1cccc(C)c1-c1cc2nc(n1)NS(=O)(=O)c1cccc(c1)C(=O)N(C)[C@H](c1ccc(C(C)(C)C)cc1)CO2` [Compound 1011], for which, for the setting “Table 7”, the “Ent. A Max Activity” value is given as “+++ (+++ is >60%)” and the EC50 is < 1 µM.
Consider `Cc1cccc(C)c1-c1cc2nc(n1)NS(=O)(=O)c1cccc(c1)C(=O)N(Cc1ccc(N3CCC(C)(C#N)CC3)nc1)[C@H](CC(C)C)CO2` [Compound 938], for which, where the note is “Table 7”, the “Ent. A Max Activity” value is on record as “+++ (+++ is >60%)” and the concentration for a half-maximal effect (EC50) was < 1 µM.
On to `Cc1cccc(C)c1-c1cc2nc(n1)NS(=O)(=O)c1cccc(c1)C(=O)N(Cc1ccc(OCCN(C)C)nc1)[C@H](CC(C)C)CO2` [Compound 942], for which, under “Table 7”, the “Ent. A Max Activity” value is recorded as “+++ (+++ is >60%)” and the EC50 was < 1 µM.
`Cc1cccc(C)c1-c1cc2nc(n1)NS(=O)(=O)c1cccc(c1)CN(C(=O)CC(C)(C)C)[C@H](CC(C)C)CO2` [Compound 1046]: the “Ent. A Max Activity” value (Table 7) is on record as “+ (+ is <30%)”.
Take `Cc1cccc(C)c1-c1cc2nc(n1)NS(=O)(=O)c1cccc(c1)C(=O)N(Cc1ccc(N3CCC(C)(O)CC3)nc1)[C@H](CC(C)C)CO2` [Compound 939]: under “Table 7”, the “Ent. A Max Activity” value was “+++ (+++ is >60%)” and the concentration for a half-maximal effect (EC50) is < 1 µM.
In the case of `Cc1cccc(C)c1-c1cc2nc(n1)NS(=O)(=O)c1cccc(c1)C(=O)N(Cc1cncn1C)[C@H](CC(C)C)CO2` [Compound 365], under “Table 6”, the “Ent. A Max Activity” value is “+++ (+++ is >60%)” and the EC50 was 1 to 3 µM.
On to `Cc1cccc(C)c1-c1cc2nc(n1)NS(=O)(=O)c1cccc(c1)C(=O)N(CCC(C)C)CC(c1ccc(C(C)(C)C)cc1)O2` (centres unmarked) [Compound 341], for which, where the note is “Table 6”, the “Ent. A Max Activity” value is reported as “++ (++ is 30-60%)” and the concentration giving a half-maximal response (EC50) was 1 to 3 µM.
With `Cc1cccc(C)c1-c1cc2nc(n1)NS(=O)(=O)c1cccc(c1)C(=O)N(C)CC(c1ccc(C3=CCOCC3)cc1)O2` (centres unmarked) [Compound 671], for the setting “Table 7”, the “Ent. A Max Activity” value is “+++ (+++ is >60%)” and the EC50 was < 1 µM.
With `Cc1cccc(C)c1-c1cc2nc(n1)NS(=O)(=O)c1cccc(c1)C(=O)N(C)CC(c1ccc(-c3ccncc3)cc1)O2` (centres unmarked) [Compound 9, 6-(2,6-Dimethylphenyl)-12-methyl-2,2-dioxo-10-[4-(4-pyridyl)phenyl]-9-oxa-2λ^6-thia-3,5,12,19-tetrazatricyclo[12.3.1.14,8]nonadeca-1(18),4(19),5,7,14,16-hexaen-13-one], for the setting “Table 6”, the “Ent. A Max Activity” value is on record as “++ (++ is 30-60%)” and the EC50 was < 1 µM.
As for `Cc1cccc(C)c1-c1cc2nc(n1)NS(=O)(=O)c1cccc(c1)C(=O)N(C)[C@@H](CC(C)C)[C@H](c1ccc(C(C)(C)C)nc1)O2` [Compound 512], where the note is “Table 6”, the “Ent. A Max Activity” value is reported as “+ (+ is <30%)”.
In the case of `Cc1cccc(C)c1-c1cc2nc(n1)NS(=O)(=O)c1cccc(c1)C(=O)N(Cc1ccccc1)C(C(=O)NC(C)(C)C)CO2` (centres unmarked) [Compound 44, 12-benzyl-N-tert-butyl-6-(2,6-dimethylphenyl)-2,2,13-trioxo-9-oxa-2λ^6-thia-3,5,12,19-tetrazatricyclo[12.3.1.14,8]nonadeca-1(18),4(19),5,7,14,16-hexaene-11-carboxamide], where the note is “Table 6”, the “Ent. A Max Activity” value is on record as “++ (++ is 30-60%)” and the EC50 was in the range of 3 to 30 µM.
